Patent publication US9657071B2, “IgE peptide vaccine” (NIPPON ZENYAKU KOGYO CO., LTD., priority 2012, dated 2017)

Key:
Assay type in all cases: in vivo
[1] = test system: human IgE; experiment: Test using dog (Part 2): IgG antibody against human IgE (ELISA); details: healthy adult beagles 24 months old, s.c. 1 mg five times at 2-week intervals
Procedure: Human IgE (Athens Research And Technology, Inc.; IgE, human Myeloma Plasma) was prepared at 1 μg/mL in an immobilization buffer (0.05 M carbonate buffer, pH 9.6), then added at a concentration of 100 μL/well to an ELISA plate, and left overnight at 4° C. The immobilization plate was washed once with PBS-T (0.05%). A blocking solution (4× Block Ace, Snow Brand Milk Products Co., Ltd.; UK-B80) was added thereto at a concentration of 200 μL/well. The plate was blocked by incubation at 37° C. for 1.5 hours. The serum was diluted 1000-fold with a diluent (PBS-T:Block Ace=9:1) and used. The plate was reacted with the serum at 37° C. for 1.5 hours and washed three times with PBS-T (0.05%). An anti-dog IgG antibody (Sheep anti-Dog IgG HRP, Bethyl Laboratories, Inc.; A40-118P) was diluted 2000-fold with a diluent and added thereto as a secondary antibody at a concentration of 100 μL/well. After reaction at 37° C. for 1.5 hours, the plate was washed three times with PBS-T (0.05%). A substrate solution (citrate buffer supplemented with one TMBZ tablet (Sigma-Aldrich Corp.; T-3405) and further supplemented, immediately before use, with 2 μL of 30% H2O2) was added at a concentration of 100 μL/well to the plate and reacted therewith for 10 minutes. […] Then, the measurement was performed using a plate reader (Bio-Rad Laboratories, Inc.; model 680) (dual: measurement: 450 nm, control: 570 nm). […]

[2] = test system: human IgE; experiment: IgE-specific IgG in serum of dogs given IgE peptide vaccine (ELISA, human IgE immobilized); details: dog
Procedure: The peptide used was MOUSE CH3-4-17-11 (mouse CH3 region amino acid sequence) (SEQ ID NO: 27). 2 mL (500 μg) of a solution of the peptide (concentration: 250 μg/mL) and 2 mL of a complete adjuvant (DIFCO ADJUVANT COMPLETE FREUND, Becton, Dickinson and Company Japan) were dispensed to microtubes. Liquids (4 mL per animal) emulsified by shaking for 15 minutes in a high-speed shaker were used as IgE peptide vaccines.
The animals used were 1 male and 7 females of 5- to 7-month-old beagles and were divided into an administration group (n=4; 08-33, 08-42, 08-43, and 08-44) and a non-administration group (n=4; 08-45, 08-46, 08-47, and 08-48).
The peptide was administered at days 0 (test start date), 14, and 28 in the first course and further at days 106 and 117 in the second course. The test substance was subcutaneously administered to the necks of the 4 animals in the administration group. The non-administration group was untreated. […]
Each antigenic protein (MOUSE CH3-4-17-11 for peptide-specific IgG assay, and human IgE for IgE-specific IgG assay) was prepared at 1 μg/mL in an immobilization buffer (0.05 M carbonate buffer, pH 9.6), then added at a concentration of 100 μL/well to an ELISA plate, and left overnight at 4° C. […] Then, the measurement was performed using a plate reader (Bio-Rad Laboratories, Inc.; model 680) (dual: measurement: 450 nm, control: 570 nm). […]

[3] = test system: mouse IgE; experiment: Reactivity of serum of peptide-immunized rabbit with mouse IgE (ELISA); details: 500 μg peptide + complete adjuvant s.c.
Procedure: 2 mL of the 250 μg/mL peptide (a total of 500 μg) used in Example 2 was mixed with an equal amount of a complete adjuvant (a total of 4 mL). Each rabbit was immunized with this mixture by the subcutaneous administration (amount of the peptide: 500 μg) at day 0 and weeks 2, 4, 6, and 8. Blood was collected 5 weeks after the week-8 administration (week 13 counted from day 0). Booster immunization was performed at week 14 counted from day 0, and blood was further collected 2 weeks thereafter (week 16 counted from day 0). Antibody titers in the collected blood were measured by ELISA. The serum of a rabbit that received no peptide was used as a control.
ELISA was performed by the following method: each […] recombinant CH3 solution of dog IgE, human IgE, mouse IgE, dog IgG, and cat IgE was immobilized at a concentration of 100 μL/well (100 ng/well) to a plate. The serum collected from the immunized rabbit was used (×200 to ×102400) as a primary antibody. An enzyme-labeled anti-rabbit IgG antibody (Zymed Laboratories Inc.) was used as a secondary antibody.

| Sequence | level of the IgG antibody against IgE [1] | IgE-specific IgG in serum, administration group versus non-administration group ([2]; day 77, p<0.05) | level of IgG antibody against IgE ([2]; summary of FIG. 6) | response of immobilized mouse IgE to peptide-administered rabbit serum [3] |
| --- | --- | --- | --- | --- |
| KKTSVSASQWYTKHHNNATT (listed as Mus musculus) [M4-7-11] | confirmed to elevate | – | – | – |
| QEKKTSVSASQWYTKHHNNATTSIT (listed as Mus musculus) [MOUSE CH3-4-17-11] | – | significantly higher | increased | responded |
